Experiments:
[1] = Particle size, polydispersity index (and zeta potential) of nanoparticle compositions, Zetasizer Nano ZS; format: physicochemical; conditions: Table 1A formulations
Method in brief: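 Particle size and polydispersity index were measured by dynamic light scattering on a Zetasizer Nano ZS in 1×PBS. Zeta potential was measured in 15 mM PBS.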

[2] = Encapsulation efficiency of RNA, QUANT-IT RIBOGREEN RNA assay; format: physicochemical; conditions: Table 1A formulations
Method in brief: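 Nanoparticle samples at about 5 μg/mL RNA in TE buffer pH 7.5 were mixed with TE or with a 2% Triton X-100 solution, incubated 15 min at 37 °C, then stained with RiboGreen diluted 1:100. Fluorescence was read at about 480/520 nm and blank-subtracted. Free RNA % was taken as intact over Triton-disrupted fluorescence.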

hEPO mRNA expression = test: hEPO expression after intravenous administration to mice; format: in vivo; conditions: i.v., 0.5 mpk, 3, 6 and 24 hours
Description: Sample formulations of nanoparticle compositions including different lipids are generally first evaluated according to Luc expression in vivo. The activity of several such compositions was further evaluated using an mRNA encoding hEPO. Nanoparticle compositions including Compounds 6, 18, 25, 30, 108-112, 60, and 122, or MC3 were prepared according to Example 2.
(§1) The expression of hEPO and cytokine induction in mice intravenously administered a nanoparticle composition at a dose of 0.5 mpk were measured at 3, 6, and 24 hours. […] The expression of hEPO in mice intramuscularly administered a nanoparticle composition from Table 1B at a dose of 0.01 mpk were measured at 3, 6, and 24 hours. […] (see also FIG. 9.)

[3] = Residual lipid level in liver of rats (UPLC-MS quantification); format: in vivo; conditions: rat; for concentration at 0.25 h / concentration at 0.5 h / concentration at 1 h / concentration at 2 h / concentration at 4 h / concentration at 8 h / concentration at 24 h / concentration at 48 h: liver; for % Lipid Remaining in liver, 48 h 2 mpk: assuming 300 g rat and 15 g liver
Description: (§2) To pre-weighed tissues, Milli-Q water was added (900 μL water per 100 mg tissue). Tissues were homogenized using an Omni probe homogenizer until uniform. 50 μL of samples and matrix calibration standards were aliquoted into a 96-well plate. 50 μL of blank matrix for matrix blanks and control blanks were aliquoted. 400 μL IS spiking solution were manually added to all samples except matrix blanks. 400 μL of 50:50 ACN:IPA were manually added to matrix blanks. The plate was covered and the samples vortexed and centrifuged for 5 minutes at >3000 rpm. 200 μL of the samples were transferred into a clean 96-well plate for analysis. […] Detection was based on electrospray ionization (ESI) in positive mode using a Sciex API5500 Mass Spectrometer.
(§3) The expression of hEPO in rats intravenously administered a nanoparticle composition at a dose of 0.2 mpk or 2.0 mpk was measured at 6 hours. […] Liver and spleen levels represent the average values calculated for 3 rats in each group.
(§4) The expression of hEPO and lipid levels in the liver and spleen in rats intravenously administered a nanoparticle composition at a dose of 0.2 mpk was measured at various timepoints. […] Lipids were formulated according to the standard MC3 formulation described above.

[4] = Residual lipid level in spleen of rats (UPLC-MS quantification); format: in vivo; conditions: rat
Description: as §2, §3, §4

[5] = Clinical chemistry and hematology after intravenous administration to rat; format: in vivo; conditions: i.v., 2 mpk, 48 h post dose
Description: Sample formulations of nanoparticle compositions including different lipids were administered intravenously to rat at a dose of 2 mpk. The expression of various clinical markers was evaluated at 48 h post dose and compared to that induced by administration of MC3 formulations or phosphate buffered saline (PBS).
Table 19 summarizes the hEPO expression, IP-10 induction, liver and spleen levels, and alanine aminotransferase (ALT) and aspartate aminotransferase (AST) measured upon intravenous administration of formulations including Compounds 48, 49, and 50 to rat at 0.2 and 2 mpk and hEPO mRNA. hEPO concentrations were measured 6 hours after administration, while cytokine induction and liver and spleen levels were measured 48 hours after administration. hEPO and IP-10 concentrations are presented in pg/ml, while liver levels are provided in ng/g. ALT and AST levels are presented in international units.

[6] = Lipid clearance: % dose remaining in liver after administration of Luc formulations; format: in vivo, mice; conditions: Table 3D
IL-6 = test: Cytokine induction (IL-6) after intravenous administration to mice; format: in vivo; conditions: i.v., 0.5 mpk, 6 hours (Table 7)
Description: The introduction of foreign material into a mammalian body induces an innate immune response that promotes cytokine production. Such immune responses to, for example, nanoparticle compositions including therapeutic and/or prophylactics, are undesirable. The induction of certain cytokines is thus measured to evaluate the […] of nanoparticle compositions. The concentrations of various cytokines in mice upon intravenous administration of nanoparticle compositions presented in Table 1A at a dosage of 0.5 mpk was measured at 6 hours. The standard MC3 formulation and a PBS control were also tested. As is evident in Table 7, IL-6 induction was highest for compositions including Compounds 1, 3, 9, 19, and 26, while IP-10 induction was highest for compositions including Compounds 3, 4, 7, 20, and 26. IL-6 induction was lowest for compositions including Compounds 4, 11, 12, and 28. IP-10 induction was lowest for compositions including Compounds 10, 11, 12, 13, 15, 17, and 18.
as §1

[7] = system: luciferase (Luc) mRNA expression; test: Luc expression (total flux) after intramuscular administration; format: in vivo, mice; conditions: i.m.
Description: The numbers 1-7 in this figure correspond to MC3, Compounds 168-170, and 173-175 respectively.
Sample formulations including both modified luciferase (Luc) mRNA and H10 mRNA were prepared and administered intramuscularly and the resulting expression and immunogenicity were evaluated simultaneously. Formulations including compounds according to Formula (I), (IA), (II), (IIa), (IIb), (IIc), (IId) or (IIe) were prepared and administered at doses of 0.001 and 0.01 mpk (e.g., doses of 0.0005 mpk of a formulation including Luc mRNA and a formulation including H10 mRNA or doses of 0.005 mpk of a formulation including Luc mRNA and a formulation including H10 mRNA).
Sample formulations including modified luciferase (Luc) mRNA prepared and administered intramuscularly and the resulting expression and immunogenicity were evaluated simultaneously. Formulations including compounds according to Formula (I), (IA), (II), (IIa), (IIb), (IIc), (IId) or (IIe) were prepared and administered at dose of […] 0.01 mpk.
The fluxes measured upon intravenous and intramuscular administration are compared in Table 6. Fluxes are presented as fold increase over that measured for MC3 formulations.

[8] = 0.2 mg/kg, intravenous, 0.2 mpk

## CCCCCCCCCOC(=O)CCCCCCCN(CCO)CCCCCCCC(=O)OC(CCCCCCCC)CCCCCCCC [Compound 18, Heptadecan-9-yl 8-((2-hydroxyethyl)(8-(nonyloxy)-8-oxooctyl)amino)octanoate]
[1]
  PDI: 0.042
[2]
  EE (%): 97.50%
hEPO mRNA expression
  hEPO concentrations versus MC3 formulations at each time point: higher hEPO concentrations than MC3 formulations
[3]; [8]
  concentration at 0.25 h: 5370 ng/g
  concentration at 0.5 h: 6020 ng/g
  concentration at 1 h: 6050 ng/g
  concentration at 2 h: 2040 ng/g
  concentration at 4 h: 839 ng/g
  concentration at 8 h: 296 ng/g
  concentration at 24 h: 5 ng/g
[3]; 0.2 mg/kg, intravenous, 0.2 mpk, 48 h, read-out: Lipid level in liver
  concentration at 48 h: 5370 ng/g
[3]; 2 mpk, 48 h
  % Lipid Remaining in liver, 48 h 2 mpk: 0.018%
[4]; [8]
  concentration at 0.25 h: 1230 ng/g
  concentration at 0.5 h: 2020 ng/g
  concentration at 1 h: 3210 ng/g
  concentration at 2 h: 3070 ng/g
  concentration at 4 h: 3770 ng/g
  concentration at 8 h: 1340 ng/g
  concentration at 24 h: 271 ng/g
[4]; 0.2 mg/kg, intravenous, 0.2 mpk, read-out: Lipid level in spleen
  concentration at 48 h: 92 ng/g

## CCCCC/C=C\C/C=C\CCCCCCCCN(CCO)CCCCCCCC(=O)OC(CCCCCCCC)CCCCCCCC [Compound 6, Heptadecan-9-yl 8-((2-hydroxyethyl)((9Z,12Z)-octadeca-9,12-dien-1-yl)amino)octanoate]
hEPO mRNA expression
  hEPO concentrations versus MC3 formulations at each time point: higher hEPO concentrations than MC3 formulations

## CCCCCC=CCC=CCCCCCCCCC(CCCCCCCCC=CCC=CCCCCC)OC(=O)CCCN(C)C (stereo not shown) [MC3, heptatriaconta-6,9,28,31-tetraen-19-yl 4-(dimethylamino)butanoate, reference compound]
[5]
  Concentration Alanine aminotransferase: 339
  Concentration Aspartate aminotransferase: 325
  Concentration Lymphocytes: 19976
  Concentration Monocytes: 1429
  Concentration Neutrophils: 4962.5
[3]; 2 mpk, 48 h
  % Lipid Remaining in liver, 48 h 2 mpk: 87%
[3]; 48 hours after administration (text to Tables 17 and 18)
  lipid remained in the liver after 48 hours: greater than 60%
[3]; intravenous, 0.2 mg/kg, 0.2 mpk, 48 h, average of 3 rats, read-out: Liver level
  concentration at 48 h: 25000 ng/g
[3]; intravenous, 2 mg/kg, 2 mpk, 48 h, average of 3 rats, read-out: Liver level
  concentration at 48 h: 285000 ng/g
[3]; iv, 0.2 mg/kg, 0.2 mpk
  concentration at 0.25 h: 13200 ng/g
  concentration at 0.5 h: 20500 ng/g
  concentration at 1 h: 16800 ng/g
  concentration at 2 h: 26000 ng/g
  concentration at 4 h: 24700 ng/g
  concentration at 8 h: 32600 ng/g
  concentration at 24 h: 33000 ng/g
[3]; iv, 0.2 mg/kg, intravenous, 0.2 mpk, 48 h, read-out: Lipid level in liver
  concentration at 48 h: 13200 ng/g
[3]; iv, 0.2 mg/kg, intravenous, 0.2 mpk, 48 hours, read-out: Liver level
  concentration at 48 h: 11300 ng/g
[3]; iv, 2 mg/kg, intravenous, 2 mpk, 48 hours, read-out: Liver level
  concentration at 48 h: 141000 ng/g
[4]; intravenous, 0.2 mg/kg, 0.2 mpk, average of 3 rats, read-out: Spleen level
  concentration at 48 h: 9440 ng/g
[4]; intravenous, 2 mg/kg, 2 mpk, average of 3 rats, read-out: Spleen level
  concentration at 48 h: 129000 ng/g
[4]; iv, 0.2 mg/kg, 0.2 mpk
  concentration at 0.25 h: 4100 ng/g
  concentration at 0.5 h: 6240 ng/g
  concentration at 1 h: 4200 ng/g
  concentration at 2 h: 8610 ng/g
  concentration at 4 h: 11900 ng/g
  concentration at 8 h: 21200 ng/g
  concentration at 24 h: 19100 ng/g
[4]; iv, 0.2 mg/kg, 0.2 mpk, read-out: Lipid level in spleen
  concentration at 48 h: 11600 ng/g
[6]; first column of this head
  % Dose Remaining in Liver 6h: 80%
[6]; second column of this head
  % Dose Remaining in Liver 6h: 54%

## CCCCCCCCCOC(=O)CCCCCCCN(CCO)CCCCCCCCCC(=O)OC(CCCCCCCC)CCCCCCCC [Compound 23, Heptadecan-9-yl 10-((2-hydroxyethyl)(8-(nonyloxy)-8-oxooctyl)amino) decanoate]
IL-6
  IL-6: 94.00

## CCCCCCCCCOC(=O)CCCCCCCN(CCCCO)CCCCCCCC(=O)OC(CCCCCCCC)CCCCCCCC [Compound 20, Heptadecan-9-yl 8-((4-hydroxybutyl)(8-(nonyloxy)-8-oxooctyl)amino) octanoate]
[7]; 0.001 and 0.01 mpk
  expression at both dose levels: highest expression
[7]; 6 hours, Luc mRNA and H10 mRNA, 0.01 mpk (Table 5A)
  Total flux (p/s) 0.01 mpk Dose: 9.72E+07 p/s

Source: patent publication US9868692B2, “Compounds and compositions for intracellular delivery of therapeutic agents” (MODERNATX, Inc., priority 2015, dated 2018)
